US7056491B2, “Monoterpenes and sesquiterpenes as chemotherapeutic and radiation sensitizers and immunomodulators” (Wisconsin Alumni Research Foundation, priority 2000, dated 2006)

Assays:
[1] = test system: glioma, prostate, colon and melanoma cell lines; assay: Apoptosis by flow cytometry of propidium iodide stained cells (sub G0/G1 peak); assay type: cell-based, human; settings: 72 hours
Text: In the present study we evaluated the effect of POH treatment on a panel of human glioma (T98G, MO59K, U-87, U-373, U-251), prostate cancer cell lines (PC3 and DU145), colon (DLD-1, HT29), melanoma (Mel5, M21).

HT29 colon cancer cells = assay: Clonogenic survival assay, POH with or without radiation, HT29; assay type: cell-based, human
Protocol: (§1) Table 1 summarizing data from different cell lines treated with radiation, radiation plus POH, and POH alone. Subconfluent cultures of human glioma (T98G, M059K, U251), prostate (DU145, PC3), colon (DLD-1, HT29) and pancreatic (MIAPACA) cancer cell lines were treated with 0.1–0.5 mM of POH for 72 hours and subsequently to increasing doses of radiation from 0.1 Gy to 8.5 Gy. Control cells were treated with medium alone. The cells were harvested and an optimum number of cells were allowed to grow for 14 days. The resulting colonies were stained and counted. Each graphed point represents mean values ± SE values of triplicate dishes. Percentage survival was determined as the ratio of plating efficiencies for each irradiated group to that of the unirradiated control.

T98G cells [2] = assay: Clonogenic survival assay, POH with or without radiation, T98G; assay type: cell-based, human
Text: Cell Line: The T98G cell line was derived from a resection specimen obtained from a patient with glioblastoma multiforme. T98G cells express endogenous mutant p53 and introduction of wild-type p53 sensitizes these cells to radiation. The radioresistance of this cell line has also been attributed to the presence of high intracellular levels of GSH, which down-regulates NFκB binding activity after exposure to ionizing radiation. A clonogenic survival assay was used to assess the response to treatment in vitro, as it is a measure of reproductive capacity.
Clonogenic Survival Assays: The T98G cell line was obtained from ATCC and maintained in DMEM-F12 medium containing 10% fetal bovine serum, 1% penicillin, streptomycin and 1 mM non-essential amino acids in a humidified incubator at 37° C. Stock solution of POH was made in the medium. One set of plates was treated with graded doses of POH (0.1 mM to 1 mM) for a period of 72 hours. Control dishes were treated with medium alone. All cells were irradiated at a dose rate of 7.5Gy/min using a CS-137 irradiator with single doses ranging from 1 Gy to 8.5Gy. The range of radiation doses used encompasses that used to treat patients.
Following irradiation, both POH treated and untreated cells were harvested by trypsinization and washed with PBS. Cells were incubated for two weeks after initial plating, fixed with methanol, stained with crystal violet and the number of colonies per dish quantitated. Survival was determined as the ratio of plating efficiencies for each irradiated group to that of the unirradiated control.
(§2) Subconfluent cultures of human glioma cell line T98G were treated with 0.1–0.5 mM of Perillyl Alcohol for 72 hours and subsequently to increasing doses of radiation from 0.1 Gy to 8.5 Gy. Control cells were treated with medium alone. The cells were harvested and an optimum number of cells were allowed to grow for 14 days. The resulting colonies were stained and counted. Each graphed point represents mean values ± SE values of triplicate dishes.
as §1

MO59K cells = assay: Clonogenic survival assay, POH with or without radiation, MO59K; assay type: cell-based, human; settings: for % SURVIVAL: MO59K
Protocol: as §2, with “MO 59K” for “T98G”, “POH” for “Perillyl Alcohol”, “the indicated doses of radiation” for “medium”
as §1

[3] = test system: Fas-sensitive Jurkat cell line; assay: Cell death of Jurkat cells incubated with POH-treated T98G; assay type: cell-based; settings: T98G treated 0.1 mM–0.5 mM 48 hours, then Jurkat 48 hours
Protocol: Referring to FIG. 27, subconfluent cells of T98G cells were treated with varying concentrations of perillyl alcohol (0.1 mM–0.5 mM) for 48 hours. At the end of the incubation the media was changed, cells from a Fas-sensitive Jurkat cell line were added to the plate, and the incubation was continued further for 48 hours. At the end of the incubation the target cells (Jurkat) were harvested, washed and the cell viability was assessed.

[4] = rats, 2% POH diet for 10 weeks; cited from earlier work
[5] = test system: MIAPACA pancreatic cancer cells; assay: Clonogenic survival assay, POH with or without radiation, MIAPACA; assay type: cell-based, human
Protocol: as §1

T98G cells [6] = assay: Clonogenic survival, POH pretreatment then doxorubicin, T98G; assay type: cell-based, human; settings: POH 0.1 mM–0.5 mM 48 hours then doxorubicin 0.01 uM–0.1 uM 48 hours
Protocol: Referring to FIG. 29, subconfluent cells of T98G cells were treated with varying concentrations of perillyl alcohol (0.1 mM–0.5 mM) for 48 hours and subsequently treated with the indicated dose of doxorubicin (0.01 uM–0.1 uM) for 48 hours. At the end of the treatment, POH-pretreated and untreated cells in the presence and absence of doxorubicin, were harvested, washed with PBS, plated at the desired cell number and incubated for two weeks. The colonies were stained with crystal violet and quantitated. Survival was determined as the ratio of plating efficiencies for each irradiated group to that of the untreated control. […] Doxorubicin at concentrations over 0.1 uM appeared to be toxic to the cells.

[7] = test system: 21–26 kD proteins, including small GTP-binding proteins; settings: dose dependent, distal to HMG-CoA reductase; cited from earlier work

## C=C(C)[C@@H]1CC=C(CO)CC1 [POH, Perillyl alcohol]
[1]; 1 mM POH
  effect of higher concentrations on tumor cell lines: cell death via apoptosis
[1]; clinically relevant doses 0.1 mM–0.5 mM
  toxicity to tumor cell lines: relatively non-toxic
HT29 colon cancer cells; 0.1 mM POH 72 h, no radiation
  % SURVIVAL: 1.060 ± 0.090%
HT29 colon cancer cells; 0.1 mM POH + 5.5 Gy
  % SURVIVAL: 0.050 ± 0.005%
HT29 colon cancer cells; 0.3 mM POH 72 h, no radiation
  % SURVIVAL: 0.714 ± 0.030%
HT29 colon cancer cells; 0.3 mM POH + 5.5 Gy
  % SURVIVAL: 0.034 ± 0.003%
HT29 colon cancer cells; 0.5 mM POH 72 h, no radiation
  % SURVIVAL: 0.400 ± 0.010%
HT29 colon cancer cells; 0.5 mM POH + 5.5 Gy
  % SURVIVAL: 0.006 ± 0.002%
T98G cells [2]
  concentration with the most pronounced radiosensitization: 0.5 mM
  lowest concentration at which radiosensitization was observed: 0.1 mM
T98G cells [2]; 0.1 mM POH 72 h, no radiation
  % SURVIVAL: 0.755 ± 0.016%
T98G cells [2]; 0.1 mM POH + 5.5 Gy
  % SURVIVAL: 0.130 ± 0.002%
T98G cells [2]; 0.3 mM POH 72 h, no radiation
  % SURVIVAL: 0.660 ± 0.024%
T98G cells [2]; 0.3 mM POH + 5.5 Gy
  % SURVIVAL: 0.066 ± 0.004%
T98G cells [2]; 0.5 mM POH 72 h, no radiation
  % SURVIVAL: 0.500 ± 0.006%
T98G cells [2]; 0.5 mM POH + 5.5 Gy
  % SURVIVAL: 0.037 ± 0.014%
T98G cells [2]; pretreatment before and during irradiation
  sensitization to radiation induced cell death: dose dependent sensitization
MO59K cells; M059K, cells not initially radiation resistant, 0.1–0.5 mM POH 72 h
  radiosensitization: lack of radiosensitization
MO59K cells; 0.1 mM POH 72 h, no radiation
  % SURVIVAL: 0.939 ± 0.005%
MO59K cells; 0.1 mM POH + 5.5 Gy
  % SURVIVAL: 0.061 ± 0.007%
MO59K cells; 0.3 mM POH 72 h, no radiation
  % SURVIVAL: 0.660 ± 0.020%
MO59K cells; 0.3 mM POH + 5.5 Gy
  % SURVIVAL: 0.080 ± 0.015%
MO59K cells; 0.5 mM POH 72 h, no radiation
  % SURVIVAL: 0.623 ± 0.009%
MO59K cells; 0.5 mM POH + 5.5 Gy
  % SURVIVAL: 0.056 ± 0.006%
[3]
  function of Fas Ligand on treated T98G towards Jurkat cells: brought about cell death
[4]
  plasma levels of terpene metabolites: 820 µM
[5]; 0.1 mM POH 72 h, no radiation
  % SURVIVAL: 1.503 ± 0.05%
[5]; 0.1 mM POH + 5.5 Gy
  % SURVIVAL: 0.154 ± 0.018%
[5]; 0.3 mM POH 72 h, no radiation
  % SURVIVAL: 0.750 ± 0.05%
[5]; 0.3 mM POH + 5.5 Gy
  % SURVIVAL: 0.059 ± 0.008%
[5]; 0.5 mM POH 72 h, no radiation
  % SURVIVAL: 0.450 ± 0.07%
[5]; 0.5 mM POH + 5.5 Gy
  % SURVIVAL: 0.015 ± 0.0027%
T98G cells [6]
  sensitization to doxorubicin-induced cell death: dose-dependent sensitization
[7]
  isoprenylation of 21–26 kD proteins: inhibit isoprenylation
